Experimental data reported in publication PMC5216056 (Nature Communications, 2017).
Where “and” joins values, the source holds several entries; their conditions need not be identical. Identical values can stand only once. Entries after “also recorded” stand apart in the source; their conditions may differ.

How the values were obtained:
physchem = conditions: pH 6.5, aqueous buffer, thermodynamic from solid
in vitro = conditions: male, C57BL/6J, mouse, microsomes, pH 7.4
sst4 (h) = molecular target: T1, sst4 (h) (Homo sapiens, UniProt P31391); assay: CEREP panel; type: binding; conditions: for % inhibition sst4 (h): 10 µM
T1 construct: CEREP (contract assay)

human P-gp = human P-gp (Homo sapiens, UniProt P08183); conditions: efflux ratio
beta 2 (h) = molecular target: T2, beta 2 (h) (Homo sapiens, UniProt P07550); assay: CEREP panel; type: binding; conditions: for % inhibition beta 2 (h): 10 µM
T2 construct: CEREP

mCB2R [1] = molecular target: T3, mCB2R (Mus musculus, UniProt P47936); assay: PathHunter β-arrestin recruitment assay; type: cell-based; conditions: for Emax: read-out: Emax ± SEM β-AR recruitment mCB2R
mCB2R [2] = molecular target: T3, mCB2R; assay: Operational analysis of biased signalling; conditions: for ΔLogR GTPγS / ΔLogR cAMP / ΔLogR β-AR: reference CP55940; for RE GTPγS / RE cAMP / RE β-AR: relative effectiveness
mCB2R [3] = molecular target: T3, mCB2R; assay: [35S]GTPγS assay; type: biochemical; parameters: from tissue; host or cells: spleen of male C57BL/6J mice; conditions: for Emax: read-out: Emax ± SEM GTPγS mCB2R
C57BL6/J mice = assay: Triad assay: hypothermia; type: in vivo, mouse; conditions: for hypothermia, cannabimimetic effect: 1-100 mg kg^−1 i.p., cumulative, mice
A2A (h) = molecular target: T4, A2A (h) (Homo sapiens, UniProt P29274); assay: CEREP panel; type: binding
T4 construct: CEREP

AT2 (h) = molecular target: T5, AT2 (h) (Homo sapiens, UniProt P50052); assay: CEREP panel; type: binding
T5 construct: CEREP
T5 sequence (P50052 1-363): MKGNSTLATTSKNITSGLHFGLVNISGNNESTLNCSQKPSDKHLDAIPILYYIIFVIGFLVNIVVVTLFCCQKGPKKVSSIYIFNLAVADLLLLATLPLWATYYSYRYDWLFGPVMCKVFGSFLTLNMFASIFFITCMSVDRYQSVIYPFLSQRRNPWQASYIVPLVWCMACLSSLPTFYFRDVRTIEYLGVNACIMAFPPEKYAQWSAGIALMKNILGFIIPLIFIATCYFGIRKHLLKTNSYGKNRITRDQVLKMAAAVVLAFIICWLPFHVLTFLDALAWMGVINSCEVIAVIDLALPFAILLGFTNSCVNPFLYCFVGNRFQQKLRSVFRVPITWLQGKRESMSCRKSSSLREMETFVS

B2 (h) = molecular target: T6, B2 (h) (Homo sapiens, UniProt P30411); assay: CEREP panel; type: binding
T6 construct: CEREP
T6 sequence (P30411 1-391): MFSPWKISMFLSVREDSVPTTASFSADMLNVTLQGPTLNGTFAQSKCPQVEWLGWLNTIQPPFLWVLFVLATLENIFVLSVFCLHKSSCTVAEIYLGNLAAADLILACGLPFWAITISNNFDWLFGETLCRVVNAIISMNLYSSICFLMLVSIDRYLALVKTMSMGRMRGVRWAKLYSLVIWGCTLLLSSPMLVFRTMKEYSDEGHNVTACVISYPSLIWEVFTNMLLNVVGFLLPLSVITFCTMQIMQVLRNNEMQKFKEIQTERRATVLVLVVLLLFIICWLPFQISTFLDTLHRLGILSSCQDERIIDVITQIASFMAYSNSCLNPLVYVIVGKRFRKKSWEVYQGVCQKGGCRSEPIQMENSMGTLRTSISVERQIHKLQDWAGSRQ

BB = assay: CEREP panel; type: binding; conditions: 10 µM
BZD (peripheral) = molecular target: T7, BZD (peripheral) (Rattus norvegicus, UniProt P16257); assay: CEREP panel; type: binding
T7 construct: CEREP

[4] = test system: Ca2+ channel (verapamil site); assay: CEREP panel; type: binding; conditions: 10 µM
CB1 (h) = molecular target: T8, CB1 (h) (Homo sapiens, UniProt P21554); assay: biochemical; type: binding
T8 construct: CEREP (contract assay)

MC4 (h) = molecular target: T9, MC4 (h) (Homo sapiens, UniProt P32245); assay: CEREP panel; type: binding
T9 construct: CEREP (contract assay)

NTS1 (NT1) (h) = molecular target: T10, NTS1 (NT1) (h) (Homo sapiens, UniProt P30989); assay: CEREP panel; type: binding
T10 construct: CEREP (contract assay)

P2Y = assay: CEREP panel; type: binding; conditions: 10 µM
PAC1 (PACAP) (h) = molecular target: T11, PAC1 (PACAP) (h) (Homo sapiens, UniProt P41586); assay: CEREP panel; type: binding
T11 construct: CEREP (contract assay)
T11 sequence (P41586 21-468): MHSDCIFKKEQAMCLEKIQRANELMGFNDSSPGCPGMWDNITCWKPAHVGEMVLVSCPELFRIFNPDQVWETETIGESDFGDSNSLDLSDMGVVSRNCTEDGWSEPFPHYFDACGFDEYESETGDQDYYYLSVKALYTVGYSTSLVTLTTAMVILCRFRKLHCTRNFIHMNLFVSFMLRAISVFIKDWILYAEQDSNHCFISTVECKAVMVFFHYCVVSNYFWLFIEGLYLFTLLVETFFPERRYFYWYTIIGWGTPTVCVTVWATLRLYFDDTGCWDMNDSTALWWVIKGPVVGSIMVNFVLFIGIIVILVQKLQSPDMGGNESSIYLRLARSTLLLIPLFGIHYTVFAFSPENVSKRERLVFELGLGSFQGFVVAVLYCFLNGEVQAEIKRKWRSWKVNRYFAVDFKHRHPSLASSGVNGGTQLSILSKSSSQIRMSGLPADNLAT

PDGF = assay: CEREP panel; type: binding; conditions: 10 µM

T2 sequence (P07550 whole entry): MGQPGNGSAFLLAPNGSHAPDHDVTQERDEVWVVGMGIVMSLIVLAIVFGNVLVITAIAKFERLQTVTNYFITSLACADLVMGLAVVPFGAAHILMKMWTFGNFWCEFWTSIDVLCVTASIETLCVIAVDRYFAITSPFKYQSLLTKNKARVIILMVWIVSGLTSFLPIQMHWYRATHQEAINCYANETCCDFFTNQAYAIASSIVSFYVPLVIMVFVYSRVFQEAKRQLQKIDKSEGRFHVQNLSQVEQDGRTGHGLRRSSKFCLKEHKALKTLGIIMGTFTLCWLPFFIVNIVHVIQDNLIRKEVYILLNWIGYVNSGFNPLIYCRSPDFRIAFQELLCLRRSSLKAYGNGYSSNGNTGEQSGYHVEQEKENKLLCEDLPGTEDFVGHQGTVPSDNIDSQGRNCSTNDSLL
human P-gp, sequence (P08183 whole entry): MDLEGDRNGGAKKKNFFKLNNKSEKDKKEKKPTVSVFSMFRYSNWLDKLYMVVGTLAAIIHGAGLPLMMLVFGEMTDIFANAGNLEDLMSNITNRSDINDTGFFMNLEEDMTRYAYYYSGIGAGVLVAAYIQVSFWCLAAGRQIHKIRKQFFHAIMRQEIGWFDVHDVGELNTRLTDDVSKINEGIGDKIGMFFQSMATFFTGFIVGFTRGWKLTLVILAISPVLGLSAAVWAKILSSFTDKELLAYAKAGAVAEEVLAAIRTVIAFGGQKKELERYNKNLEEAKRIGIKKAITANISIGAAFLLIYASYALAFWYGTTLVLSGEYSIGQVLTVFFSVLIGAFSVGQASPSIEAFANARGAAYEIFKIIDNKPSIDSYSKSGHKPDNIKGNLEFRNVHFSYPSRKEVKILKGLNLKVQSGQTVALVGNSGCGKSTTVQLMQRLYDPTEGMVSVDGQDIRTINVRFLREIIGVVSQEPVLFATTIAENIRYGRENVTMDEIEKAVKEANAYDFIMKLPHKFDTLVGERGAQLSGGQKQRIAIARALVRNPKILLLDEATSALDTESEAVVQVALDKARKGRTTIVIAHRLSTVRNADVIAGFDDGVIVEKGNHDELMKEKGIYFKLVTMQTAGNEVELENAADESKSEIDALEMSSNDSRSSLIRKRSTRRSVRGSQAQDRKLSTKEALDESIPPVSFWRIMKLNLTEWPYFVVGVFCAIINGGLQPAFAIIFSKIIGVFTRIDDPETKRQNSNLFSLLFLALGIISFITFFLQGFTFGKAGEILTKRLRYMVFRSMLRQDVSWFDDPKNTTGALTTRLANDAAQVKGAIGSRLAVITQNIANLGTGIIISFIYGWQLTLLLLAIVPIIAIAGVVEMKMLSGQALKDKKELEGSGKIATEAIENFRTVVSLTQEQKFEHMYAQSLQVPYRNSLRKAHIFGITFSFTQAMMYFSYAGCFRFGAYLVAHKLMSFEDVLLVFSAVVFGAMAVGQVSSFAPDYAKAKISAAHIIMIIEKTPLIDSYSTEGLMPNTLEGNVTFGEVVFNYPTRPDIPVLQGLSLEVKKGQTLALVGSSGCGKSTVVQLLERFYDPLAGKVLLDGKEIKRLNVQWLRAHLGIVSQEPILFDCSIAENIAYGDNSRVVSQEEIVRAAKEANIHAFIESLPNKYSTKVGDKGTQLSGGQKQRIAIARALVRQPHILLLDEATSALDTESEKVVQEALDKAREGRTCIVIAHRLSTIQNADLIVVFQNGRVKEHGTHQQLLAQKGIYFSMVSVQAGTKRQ
T3 sequence (P47936 whole entry): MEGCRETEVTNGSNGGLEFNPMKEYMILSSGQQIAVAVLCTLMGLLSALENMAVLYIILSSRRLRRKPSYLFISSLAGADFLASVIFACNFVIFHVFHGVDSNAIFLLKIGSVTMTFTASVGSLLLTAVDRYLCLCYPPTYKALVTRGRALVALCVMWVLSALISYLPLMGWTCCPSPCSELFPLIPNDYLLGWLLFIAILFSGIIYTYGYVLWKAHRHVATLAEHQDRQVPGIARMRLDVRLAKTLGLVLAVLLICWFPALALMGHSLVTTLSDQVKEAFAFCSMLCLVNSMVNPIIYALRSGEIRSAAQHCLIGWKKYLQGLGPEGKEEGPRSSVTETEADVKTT
T1 sequence (P31391 whole entry): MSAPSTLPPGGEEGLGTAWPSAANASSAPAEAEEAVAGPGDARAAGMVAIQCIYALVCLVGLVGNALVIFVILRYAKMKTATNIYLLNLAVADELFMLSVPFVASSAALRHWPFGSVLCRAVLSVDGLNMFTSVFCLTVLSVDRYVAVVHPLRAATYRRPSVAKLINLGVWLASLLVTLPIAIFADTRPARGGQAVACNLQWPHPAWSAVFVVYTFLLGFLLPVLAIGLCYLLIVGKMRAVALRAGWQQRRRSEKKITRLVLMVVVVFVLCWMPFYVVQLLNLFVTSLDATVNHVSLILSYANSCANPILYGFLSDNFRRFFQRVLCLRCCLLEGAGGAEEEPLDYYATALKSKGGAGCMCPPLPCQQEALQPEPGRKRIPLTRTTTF
T4 sequence (P29274 whole entry): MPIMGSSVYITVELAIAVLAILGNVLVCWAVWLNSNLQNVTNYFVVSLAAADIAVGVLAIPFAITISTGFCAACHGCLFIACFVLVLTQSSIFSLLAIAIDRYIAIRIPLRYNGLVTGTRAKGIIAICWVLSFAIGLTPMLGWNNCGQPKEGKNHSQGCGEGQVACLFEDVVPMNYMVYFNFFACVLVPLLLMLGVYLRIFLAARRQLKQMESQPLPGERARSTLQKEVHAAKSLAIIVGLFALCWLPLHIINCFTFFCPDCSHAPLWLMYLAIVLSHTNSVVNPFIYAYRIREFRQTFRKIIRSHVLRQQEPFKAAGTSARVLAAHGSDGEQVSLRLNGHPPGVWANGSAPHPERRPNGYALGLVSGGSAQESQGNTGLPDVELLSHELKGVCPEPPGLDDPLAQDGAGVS
T10 sequence (P30989 whole entry): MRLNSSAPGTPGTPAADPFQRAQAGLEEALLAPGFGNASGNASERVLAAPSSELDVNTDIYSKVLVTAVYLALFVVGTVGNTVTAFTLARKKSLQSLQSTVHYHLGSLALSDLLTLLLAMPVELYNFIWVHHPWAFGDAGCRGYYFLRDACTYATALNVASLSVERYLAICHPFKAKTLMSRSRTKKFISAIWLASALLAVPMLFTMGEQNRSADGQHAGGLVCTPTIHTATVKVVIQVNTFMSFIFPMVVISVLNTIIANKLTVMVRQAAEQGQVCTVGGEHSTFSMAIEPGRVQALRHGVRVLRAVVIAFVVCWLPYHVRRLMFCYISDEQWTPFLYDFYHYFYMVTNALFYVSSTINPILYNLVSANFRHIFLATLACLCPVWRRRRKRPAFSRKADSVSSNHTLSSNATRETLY
T9 sequence (P32245 whole entry): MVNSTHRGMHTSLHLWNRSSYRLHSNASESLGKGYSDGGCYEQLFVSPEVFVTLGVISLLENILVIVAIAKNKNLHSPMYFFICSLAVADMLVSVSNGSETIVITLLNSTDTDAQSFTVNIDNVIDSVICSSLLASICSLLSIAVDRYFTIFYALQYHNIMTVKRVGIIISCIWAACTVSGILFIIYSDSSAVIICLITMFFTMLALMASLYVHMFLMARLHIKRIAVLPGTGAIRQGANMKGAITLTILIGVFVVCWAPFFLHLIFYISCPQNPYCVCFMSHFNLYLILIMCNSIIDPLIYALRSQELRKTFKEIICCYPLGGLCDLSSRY
T8 sequence (P21554 whole entry): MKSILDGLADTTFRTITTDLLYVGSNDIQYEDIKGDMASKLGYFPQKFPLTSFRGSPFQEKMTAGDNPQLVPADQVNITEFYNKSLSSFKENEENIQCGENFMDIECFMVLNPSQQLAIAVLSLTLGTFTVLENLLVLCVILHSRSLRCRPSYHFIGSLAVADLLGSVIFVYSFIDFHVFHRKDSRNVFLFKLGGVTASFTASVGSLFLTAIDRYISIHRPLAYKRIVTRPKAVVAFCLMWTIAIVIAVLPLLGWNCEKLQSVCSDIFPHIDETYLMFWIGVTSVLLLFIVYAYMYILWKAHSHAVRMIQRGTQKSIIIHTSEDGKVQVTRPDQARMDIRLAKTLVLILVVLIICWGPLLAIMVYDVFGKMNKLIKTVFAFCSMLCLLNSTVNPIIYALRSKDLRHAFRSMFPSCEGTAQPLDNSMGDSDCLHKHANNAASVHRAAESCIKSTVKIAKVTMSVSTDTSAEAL
T7 sequence (P16257 whole entry): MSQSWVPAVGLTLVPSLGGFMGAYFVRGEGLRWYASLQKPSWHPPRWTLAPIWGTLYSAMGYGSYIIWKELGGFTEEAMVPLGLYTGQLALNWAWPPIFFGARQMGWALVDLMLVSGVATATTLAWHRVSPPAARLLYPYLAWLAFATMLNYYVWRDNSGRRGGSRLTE

Compound: CCCCC/C=C\C/C=C\C/C=C\C/C=C\CCCC(=O)OC(CO)CO [2-AG, 2-arachidonoyl glycerol]
- solubility kinetic (physchem): < 0.5 µg/mL and < 1.3 µM
- microsomal CLint (in vitro): 12 µL/min/mg

Compound: CN1CCCC[C@H]1Cn1cc(C(=O)c2cc([N+](=O)[O-])ccc2I)c2ccccc21 [(S)-AM1241]
- % inhibition sst4 (h) (sst4 (h)): 63%
- P-gp (ER) human (human P-gp): 2.7

Compound: Cc1c(C(=O)NN2CCCCC2)nn(-c2ccc(Cl)cc2Cl)c1-c1ccc(I)cc1 [AM251]
- % inhibition sst4 (h) (sst4 (h)): 51%

Compound: COc1ccc(C(=O)c2c(C)n(CCN3CCOCC3)c3cc(I)ccc23)cc1 [AM630]
- % inhibition beta 2 (h) (beta 2 (h)): 11%
- P-gp (ER) human (human P-gp): 1.3

Compound: CCCCC/C=C\C/C=C\C/C=C\C/C=C\CCCC(=O)NCCO [Anandamide, N-arachidonoylethanolamine]
- solubility kinetic (physchem): < 1.1 µg/mL and < 3.2 µM
- microsomal CLint (in vitro): 222 µL/min/mg

Compound: CCCCCCC(C)(C)c1ccc([C@@H]2C[C@H](O)CC[C@H]2CCCO)c(O)c1 [CP55940]
- EC50 (mCB2R [1]): 9.55 nM
- Emax (mCB2R [1]): 96 ± 1%
- GTPγS-cAMP bias factor (BF) (mCB2R [2]): 1
- GTPγS-cAMP ΔΔlogR (mCB2R [2]): 0 ± 0.21
- LogR GTPγS (mCB2R [2]): 7.82 ± 0.05
- LogR cAMP (mCB2R [2]): 10.52 ± 0.14
- LogR β-AR (mCB2R [2]): 8.0 ± 0.06
- β-AR-GTPγS bias factor (BF) (mCB2R [2]): 1
- β-AR-GTPγS ΔΔlogR (mCB2R [2]): 0 ± 0.10
- β-AR-cAMP bias factor (BF) (mCB2R [2]): 1
- β-AR-cAMP ΔΔlogR (mCB2R [2]): 0 ± 0.21
- ΔLogR GTPγS (mCB2R [2]): 0 ± 0.07
- ΔLogR cAMP (mCB2R [2]): 0 ± 0.20
- ΔLogR β-AR (mCB2R [2]): 0 ± 0.08
- RE GTPγS (mCB2R [2]): 1.00
- RE cAMP (mCB2R [2]): 1.00
- RE β-AR (mCB2R [2]): 1.00
- inhibition at 10 µM (sst4 (h)): 63%
- microsomal CLint (in vitro): 172 µL/min/mg
- EC50 (mCB2R [3]): 16.2 nM
- Emax (mCB2R [3]): 102 ± 1%

Compound: Cc1ccc2c(c1)Cc1c(C(=O)NN3CCCCC3)nn(-c3ccc(Cl)cc3Cl)c1-2 [Gp-1a]
- P-gp (ER) human (human P-gp): 1.0

Compound: CCCCCCC(C)(C)c1cc(OC)c([C@@H]2C=C(CO)[C@@H]3C[C@H]2C3(C)C)c(OC)c1 [HU308]
- EC50 (mCB2R [1]): 339 nM
- Emax (mCB2R [1]): 69 ± 3%
- GTPγS-cAMP bias factor (BF) (mCB2R [2]): 25.8
- GTPγS-cAMP ΔΔlogR (mCB2R [2]): 1.41 ± 0.27
- LogR GTPγS (mCB2R [2]): 6.77 ± 0.05
- LogR cAMP (mCB2R [2]): 8.07 ± 0.22
- LogR β-AR (mCB2R [2]): 6.22 ± 0.10
- β-AR-GTPγS bias factor (BF) (mCB2R [2]): 0.19
- β-AR-GTPγS ΔΔlogR (mCB2R [2]): -0.72 ± 0.13
- β-AR-cAMP bias factor (BF) (mCB2R [2]): 4.9
- β-AR-cAMP ΔΔlogR (mCB2R [2]): 0.69 ± 0.28
- ΔLogR GTPγS (mCB2R [2]): -1.04 ± 0.07
- ΔLogR cAMP (mCB2R [2]): -2.46 ± 0.26
- ΔLogR β-AR (mCB2R [2]): -1.77 ± 0.12
- RE GTPγS (mCB2R [2]): 0.09
- RE cAMP (mCB2R [2]): 0.004
- RE β-AR (mCB2R [2]): 0.02
- hypothermia, cannabimimetic effect (C57BL6/J mice): did not produce detectable; also recorded: lacked appreciable pharmacological effects
- inhibition at 10 µM (A2A (h); read-out: % inhibition A2A (h)): 25%
- inhibition at 10 µM (AT2 (h); read-out: % inhibition AT2 (h)): 42%
- inhibition at 10 µM (B2 (h); read-out: % inhibition B2 (h)): -21%
- % inhibition BB (BB): 3%
- inhibition at 10 µM (beta 2 (h); read-out: % inhibition beta 2 (h)): -30%
- inhibition at 10 µM (BZD (peripheral); read-out: % inhibition BZD (peripheral)): 12%
- % inhibition Ca2+ channel (verapamil site) [4]: 3%
- inhibition at 10 µM (CB1 (h); read-out: % inhibition CB1 (h)): 18%
- inhibition at 10 µM (MC4 (h); read-out: % inhibition MC4 (h)): 1%
- inhibition at 10 µM (NTS1 (NT1) (h); read-out: % inhibition NTS1 (NT1) (h)): -23%
- % inhibition P2Y (P2Y): 1%
- inhibition at 10 µM (PAC1 (PACAP) (h); read-out: % inhibition PAC1 (PACAP) (h)): -3%
- % inhibition PDGF (PDGF): -28%
- solubility kinetic (physchem): < 0.75 µg/mL and < 1.8 µM
- EC50 (mCB2R [3]): 148 nM
- Emax (mCB2R [3]): 96 ± 3%

Compound: CCCC(C)(C)c1ccc2c(c1)OC(C)(C)[C@@H]1CC=C(C)C[C@@H]21 [JWH133]
- pEC50 ± SEM β-AR recruitment mCB2R (mCB2R [1]): 6.80 ± 0.17
- Emax ± SEM β-AR recruitment mCB2R (mCB2R [1]; normalized to 10 µM CP55940): 63 ± 7%
- GTPγS-cAMP bias factor (BF) (mCB2R [2]): 50.9
- GTPγS-cAMP ΔΔlogR (mCB2R [2]): 1.71 ± 0.18
- LogR GTPγS (mCB2R [2]): 7.07 ± 0.05
- LogR cAMP (mCB2R [2]): 8.07 ± 0.09
- LogR β-AR (mCB2R [2]): 6.57 ± 0.12
- β-AR-GTPγS bias factor (BF) (mCB2R [2]): 0.21
- β-AR-GTPγS ΔΔlogR (mCB2R [2]): -0.67 ± 0.15
- β-AR-cAMP bias factor (BF) (mCB2R [2]): 10.9
- β-AR-cAMP ΔΔlogR (mCB2R [2]): 1.04 ± 0.21
- ΔLogR GTPγS (mCB2R [2]): -0.75 ± 0.07
- ΔLogR cAMP (mCB2R [2]): -2.45 ± 0.17
- ΔLogR β-AR (mCB2R [2]): -1.42 ± 0.13
- RE GTPγS (mCB2R [2]): 0.18
- RE cAMP (mCB2R [2]): 0.004
- RE β-AR (mCB2R [2]): 0.04
- hypothermia, cannabimimetic effect (C57BL6/J mice): did not produce detectable; also recorded: lacked appreciable pharmacological effects
- % inhibition A2A (h) (A2A (h); 10 µM): 4%
- % inhibition AT2 (h) (AT2 (h); 10 µM): 0%
- % inhibition B2 (h) (B2 (h); 10 µM): -2%
- % inhibition BB (BB): 0%
- % inhibition beta 2 (h) (beta 2 (h)): -15%
- % inhibition BZD (peripheral) (BZD (peripheral); 10 µM): -1%
- % inhibition Ca2+ channel (verapamil site) [4]: 1%
- % inhibition CB1 (h) (CB1 (h); 10 µM): 6
- % inhibition MC4 (h) (MC4 (h); 10 µM): -10%
- % inhibition NTS1 (NT1) (h) (NTS1 (NT1) (h); 10 µM): 0%
- % inhibition P2Y (P2Y): 3%
- % inhibition PAC1 (PACAP) (h) (PAC1 (PACAP) (h); 10 µM): 12%
- % inhibition PDGF (PDGF): -12%
- pEC50 ± SEM GTPγS mCB2R (mCB2R [3]): 7.03 ± 0.14
- Emax ± SEM GTPγS mCB2R (mCB2R [3]; normalized to 10 µM CP55940): 103 ± 7%

Compound: Cc1c(C(=O)NN2CCCCC2)nn(-c2ccc(Cl)cc2Cl)c1-c1ccc(Cl)cc1 [SR141716A]
- antagonism of HU210-induced hypothermia (C57BL6/J mice; mouse, in vivo): attenuated; also recorded: significantly antagonized
- solubility kinetic (physchem): < 0.733 µg/mL and < 1.6 µM
- microsomal CLint (in vitro): 109 µL/min/mg

Compound: Cc1c(C(=O)c2cccc3ccccc23)c2cccc3c2n1[C@H](CN1CCOCC1)CO3 [WIN55212-2]
- % inhibition sst4 (h) (sst4 (h)): 64%
